Here are results for 21 molecules from patent US20250144094A1 (Erasca, Inc., priority 2021, published 2025).

For this assay, the target named is Recombinant human ULK1 (1-649) (Homo sapiens (Human), UniProt O75385). The assay is described as follows: ULK1 ADP Glo kinase activity assay, new method (ULKtide peptide substrate). The note with it: 25° C., 40 minutes, read-out: ULK1 biochemical IC50. In outline:
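Kinase activity was read as ADP production (ADP-Glo, luminescence 30 min after detection reagent) following a 40-min, 25 °C reaction of Sf9-expressed GST-ULK1 (1-649) with ULKtide substrate and ATP. Compounds ran as 12-point series starting at 10 μM; four-parameter curve fitting versus DMSO wells gave IC50.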
Background: In ADP-Glo the light output rises with the ADP produced.

Recombinant human ULK1 (1-649), sequence (O75385 1-649): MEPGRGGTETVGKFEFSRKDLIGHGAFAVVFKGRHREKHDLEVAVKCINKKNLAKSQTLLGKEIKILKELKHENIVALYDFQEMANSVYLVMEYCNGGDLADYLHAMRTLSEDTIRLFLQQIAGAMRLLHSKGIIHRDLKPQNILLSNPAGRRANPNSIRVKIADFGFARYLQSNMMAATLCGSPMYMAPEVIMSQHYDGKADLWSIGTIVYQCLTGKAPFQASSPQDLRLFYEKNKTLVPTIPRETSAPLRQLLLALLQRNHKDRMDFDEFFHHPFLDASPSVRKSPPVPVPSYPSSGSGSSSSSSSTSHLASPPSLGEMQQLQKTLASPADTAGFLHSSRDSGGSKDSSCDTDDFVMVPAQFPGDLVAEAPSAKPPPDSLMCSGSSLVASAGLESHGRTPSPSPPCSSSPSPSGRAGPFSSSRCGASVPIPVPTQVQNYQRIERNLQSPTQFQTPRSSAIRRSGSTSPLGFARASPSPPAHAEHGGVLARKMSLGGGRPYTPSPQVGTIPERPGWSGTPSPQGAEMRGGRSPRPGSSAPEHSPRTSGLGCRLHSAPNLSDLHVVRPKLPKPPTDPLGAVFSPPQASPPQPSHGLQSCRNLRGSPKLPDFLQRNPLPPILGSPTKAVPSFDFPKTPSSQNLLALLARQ

What is called IC50 is the point on the concentration scale where inhibition reaches its midpoint. Turning to `CCc1cc(N2C[C@H]3C[C@@H]2CN3C)ccc1Nc1ncc(C(F)(F)F)c(-c2cc3c(s2)C(=O)N(C2CC2)CCS3(=O)=O)n1` [Example 323, 4-cyclopropyl-7-(2-((2-ethyl-4-((1R,4R)-5-methyl-2,5-diazabicyclo[2.2.1]heptan-2-yl)phenyl)amino)-5-(trifluoromethyl)pyrimidin-4-yl)-3,4-dihydrothieno[2,3-f][1,4]thiazepin-5(2H)-one 1,1-dioxide], the 50% inhibitory concentration (IC50) is ≤ 5 nM.

As to `CCc1cc(N2C[C@H]3CC[C@@H](C2)N3)ccc1Nc1ncc(C(F)(F)F)c(-c2cc3c(s2)C(=O)N(C2CC2)CCS3(=O)=O)n1` [Example 324, 7-(2-((4-((1R,5S)-3,8-diazabicyclo[3.2.1]octan-3-yl)-2-ethylphenyl)amino)-5-(trifluoromethyl)pyrimidin-4-yl)-4-cyclopropyl-3,4-dihydrothieno[2,3-f][1,4]thiazepin-5(2H)-one 1,1-dioxide], the IC50 was ≤ 5 nM.

Take `CCc1cc(N2C[C@H]3CC[C@@H](C2)N3C)ccc1Nc1ncc(C(F)(F)F)c(-c2cc3c(s2)C(=O)N(C2CC2)CCS3(=O)=O)n1` [Example 325, 4-cyclopropyl-7-(2-((2-ethyl-4-((1R,5S)-8-methyl-3,8-diazabicyclo[3.2.1]octan-3-yl)phenyl)amino)-5-(trifluoromethyl)pyrimidin-4-yl)-3,4-dihydrothieno[2,3-f][1,4]thiazepin-5(2H)-one 1,1-dioxide]: the concentration for half-maximal inhibition (IC50) is ≤ 5 nM.

As to `C[C@@H]1CN(c2ccc(Nc3ncc(C(F)(F)F)c(-c4cc5c(s4)C(=O)N(C4CC4)CCS5(=O)=O)n3)c(C3CC3)c2)C[C@H](C)N1` [Example 326, 4-cyclopropyl-7-(2-((2-cyclopropyl-4-((3S,5R)-3,5-dimethylpiperazin-1-yl)phenyl)amino)-5-(trifluoromethyl)pyrimidin-4-yl)-3,4-dihydrothieno[2,3-f][1,4]thiazepin-5(2H)-one 1,1-dioxide], the IC50 was ≤ 5 nM.

Regarding `C[C@H]1CN(c2ccc(Nc3ncc(C(F)(F)F)c(-c4cc5c(s4)C(=O)N(C4CC4)CCS5(=O)=O)n3)c(C3CC3)c2)C[C@H](C)N1` [Example 327, 4-cyclopropyl-7-(2-((2-cyclopropyl-4-((3S,5S)-3,5-dimethylpiperazin-1-yl)phenyl)amino)-5-(trifluoromethyl)pyrimidin-4-yl)-3,4-dihydrothieno[2,3-f][1,4]thiazepin-5(2H)-one 1,1-dioxide], the IC50 is ≤ 5 nM.

`C[C@H]1CN(c2ccc(Nc3ncc(C(F)(F)F)c(-c4cc5c(s4)C(=O)N(C4CC4)CCS5(=O)=O)n3)c(C3CC3)c2)C[C@H](C)N1C` [Example 328, 4-cyclopropyl-7-(2-((2-cyclopropyl-4-((3S,5S)-3,4,5-trimethylpiperazin-1-yl)phenyl)amino)-5-(trifluoromethyl)pyrimidin-4-yl)-3,4-dihydrothieno[2,3-f][1,4]thiazepin-5(2H)-one 1,1-dioxide]: the 50% inhibitory concentration (IC50) is 5 to 10 nM.

As to `O=C1c2sc(-c3nc(Nc4ccc(N5C[C@H]6C[C@@H]5CN6)cc4C4CC4)ncc3C(F)(F)F)cc2S(=O)(=O)CCN1C1CC1` [Example 329, 7-(2-((4-((1R,4R)-2,5-diazabicyclo[2.2.1]heptan-2-yl)-2-cyclopropylphenyl)amino)-5-(trifluoromethyl)pyrimidin-4-yl)-4-cyclopropyl-3,4-dihydrothieno[2,3-f][1,4]thiazepin-5(2H)-one 1,1-dioxide], the IC50 is ≤ 5 nM.

For the molecule `CN1C[C@H]2C[C@@H]1CN2c1ccc(Nc2ncc(C(F)(F)F)c(-c3cc4c(s3)C(=O)N(C3CC3)CCS4(=O)=O)n2)c(C2CC2)c1` [Example 330, 4-cyclopropyl-7-(2-((2-cyclopropyl-4-((1R,4R)-5-methyl-2,5-diazabicyclo[2.2.1]heptan-2-yl)phenyl)amino)-5-(trifluoromethyl)pyrimidin-4-yl)-3,4-dihydrothieno[2,3-f][1,4]thiazepin-5(2H)-one 1,1-dioxide], the half-maximal inhibitory concentration (IC50) is ≤ 5 nM.

On to `C[C@H]1CN(c2ccc(Nc3ncc(C(F)(F)F)c(-c4cc5c(s4)C(=O)N(C4CC4)CCS5(=O)=O)n3)c(C3CC3)c2)CCN1` [Example 331, (S)-4-cyclopropyl-7-(2-((2-cyclopropyl-4-(3-methylpiperazin-1-yl)phenyl)amino)-5-(trifluoromethyl)pyrimidin-4-yl)-3,4-dihydrothieno[2,3-f][1,4]thiazepin-5(2H)-one 1,1-dioxide], for which the 50% inhibitory concentration (IC50) was ≤ 5 nM.

For the molecule `C[C@H]1CN(c2ccc(Nc3ncc(C(F)(F)F)c(-c4cc5c(s4)C(=O)N(C4CC4)CCS5(=O)=O)n3)c(C3CC3)c2)CCN1C` [Example 332, (S)-4-cyclopropyl-7-(2-((2-cyclopropyl-4-(3,4-dimethylpiperazin-1-yl)phenyl)amino)-5-(trifluoromethyl)pyrimidin-4-yl)-3,4-dihydrothieno[2,3-f][1,4]thiazepin-5(2H)-one 1,1-dioxide], the 50% inhibitory concentration (IC50) is ≤ 5 nM.

For `CN1C[C@H]2C[C@@H]1CN2c1ccc(Nc2ncc(C(F)(F)F)c(-c3cc4c(s3)C(=O)N(C3COC3)CCS4(=O)=O)n2)c(C2CC2)c1` [Example 334, 7-(2-((2-cyclopropyl-4-((1R,4R)-5-methyl-2,5-diazabicyclo[2.2.1]heptan-2-yl)phenyl)amino)-5-(trifluoromethyl)pyrimidin-4-yl)-4-(oxetan-3-yl)-3,4-dihydrothieno[2,3-f][1,4]thiazepin-5(2H)-one 1,1-dioxide], the IC50 is ≤ 5 nM.

As to `CCc1cc(N2C[C@@H]3C[C@H]2CN3)ccc1Nc1ncc(C(F)(F)F)c(-c2cc3c(s2)C(=O)N(C2COC2)CCS3(=O)=O)n1` [Example 335, 7-(2-((4-((1S,4S)-2,5-diazabicyclo[2.2.1]heptan-2-yl)-2-ethylphenyl)amino)-5-(trifluoromethyl)pyrimidin-4-yl)-4-(oxetan-3-yl)-3,4-dihydrothieno[2,3-f][1,4]thiazepin-5(2H)-one 1,1-dioxide], the IC50 was ≤ 5 nM.

For `CCc1cc(N2C[C@H]3C[C@@H]2CN3)ccc1Nc1ncc(C(F)(F)F)c(-c2cc3c(s2)C(=O)N(C2COC2)CCS3(=O)=O)n1` [Example 336, 7-(2-((4-((1R,4R)-2,5-diazabicyclo[2.2.1]heptan-2-yl)-2-ethylphenyl)amino)-5-(trifluoromethyl)pyrimidin-4-yl)-4-(oxetan-3-yl)-3,4-dihydrothieno[2,3-f][1,4]thiazepin-5(2H)-one 1,1-dioxide], the 50% inhibitory concentration (IC50) is ≤ 5 nM.

In the case of `CCc1cc(N2C[C@H]3CC[C@@H](C2)N3)ccc1Nc1ncc(C(F)(F)F)c(-c2cc3c(s2)C(=O)N(C2COC2)CCS3(=O)=O)n1` [Example 337, 7-(2-((4-((1R,5S)-3,8-diazabicyclo[3.2.1]octan-3-yl)-2-ethylphenyl)amino)-5-(trifluoromethyl)pyrimidin-4-yl)-4-(oxetan-3-yl)-3,4-dihydrothieno[2,3-f][1,4]thiazepin-5(2H)-one 1,1-dioxide], the IC50 was ≤ 5 nM.

With `O=C1c2sc(-c3nc(Nc4ccc(N5CC6CC(C5)N6)cc4C4CC4)ncc3C(F)(F)F)cc2S(=O)(=O)CCN1C1CC1` [Example 338, 7-(2-((4-(3,6-diazabicyclo[3.1.1]heptan-3-yl)-2-cyclopropylphenyl)amino)-5-(trifluoromethyl)pyrimidin-4-yl)-4-cyclopropyl-3,4-dihydrothieno[2,3-f][1,4]thiazepin-5(2H)-one 1,1-dioxide], the IC50 is ≤ 5 nM.

Consider `CN1C2CC1CN(c1ccc(Nc3ncc(C(F)(F)F)c(-c4cc5c(s4)C(=O)N(C4CC4)CCS5(=O)=O)n3)c(C3CC3)c1)C2` [Example 339, 4-cyclopropyl-7-(2-((2-cyclopropyl-4-(6-methyl-3,6-diazabicyclo[3.1.1]heptan-3-yl)phenyl)amino)-5-(trifluoromethyl)pyrimidin-4-yl)-3,4-dihydrothieno[2,3-f][1,4]thiazepin-5(2H)-one 1,1-dioxide], for which the half-inhibitory concentration (IC50) was ≤ 5 nM.

Take `O=C1c2sc(-c3nc(Nc4ccc(N5CC6CC(C5)N6)cc4C4CC4)ncc3C(F)(F)F)cc2S(=O)(=O)CCN1C1COC1` [Example 340, 7-(2-((4-(3,6-diazabicyclo[3.1.1]heptan-3-yl)-2-cyclopropylphenyl)amino)-5-(trifluoromethyl)pyrimidin-4-yl)-4-(oxetan-3-yl)-3,4-dihydrothieno[2,3-f][1,4]thiazepin-5(2H)-one 1,1-dioxide]: the half-maximal inhibitory concentration (IC50) is ≤ 5 nM.

For `C[C@H]1CN(c2ccc(Nc3ncc(C(F)(F)F)c(-c4cc5c(s4)C(=O)N(C4COC4)CCS5(=O)=O)n3)c(C3CC3)c2)CCN1` [Example 341, (S)-7-(2-((2-Cyclopropyl-4-(3-methylpiperazin-1-yl)phenyl)amino)-5-(trifluoromethyl)pyrimidin-4-yl)-4-(oxetan-3-yl)-3,4-dihydrothieno[2,3-f][1,4]thiazepin-5(2H)-one 1,1-dioxide], the half-inhibitory concentration (IC50) was ≤ 5 nM.

As for `C[C@H]1CN(c2ccc(Nc3ncc(C(F)(F)F)c(-c4cc5c(s4)C(=O)N(C4COC4)CCS5(=O)=O)n3)c(C3CC3)c2)CCN1C` [Example 342, (S)-7-(2-((2-cyclopropyl-4-(3,4-dimethylpiperazin-1-yl)phenyl)amino)-5-(trifluoromethyl)pyrimidin-4-yl)-4-(oxetan-3-yl)-3,4-dihydrothieno[2,3-f][1,4]thiazepin-5(2H)-one 1,1-dioxide], the IC50 is ≤ 5 nM.

Regarding `C[C@@H]1CN(c2ccc(Nc3ncc(C(F)(F)F)c(-c4cc5c(s4)C(=O)N(C4CC4)CCS5(=O)=O)n3)c(C3CC3)c2)C[C@H](C)N1C` [Example 343, 4-Cyclopropyl-7-(2-((2-cyclopropyl-4-((3S,5R)-3,4,5-trimethylpiperazin-1-yl)phenyl)amino)-5-(trifluoromethyl)pyrimidin-4-yl)-3,4-dihydrothieno[2,3-f][1,4]thiazepin-5(2H)-one 1,1-dioxide], the half-inhibitory concentration (IC50) is ≤ 5 nM.

Take `C[C@H]1CN(c2ccc(Nc3ncc(C(F)(F)F)c(-c4cc5c(s4)C(=O)N(C4COC4)CCS5(=O)=O)n3)c(C3CC3)c2)C[C@H](C)N1` [Example 344, 7-(2-((2-Cyclopropyl-4-((3S,5S)-3,5-dimethylpiperazin-1-yl)phenyl)amino)-5-(trifluoromethyl)pyrimidin-4-yl)-4-(oxetan-3-yl)-3,4-dihydrothieno[2,3-f][1,4]thiazepin-5(2H)-one 1,1-dioxide]: the half-inhibitory concentration (IC50) was ≤ 5 nM.
